Data on 13 molecules can be found in patent publication US7030121B2, “Pyrazolopyrazine compound and pharmaceutical use thereof” (Astellas Pharma Inc., priority 2001, dated 2006).

For data set [1], the target named is T1, human A1 receptor (Homo sapiens, UniProt P30542).
T1 sequence (P30542 1-326): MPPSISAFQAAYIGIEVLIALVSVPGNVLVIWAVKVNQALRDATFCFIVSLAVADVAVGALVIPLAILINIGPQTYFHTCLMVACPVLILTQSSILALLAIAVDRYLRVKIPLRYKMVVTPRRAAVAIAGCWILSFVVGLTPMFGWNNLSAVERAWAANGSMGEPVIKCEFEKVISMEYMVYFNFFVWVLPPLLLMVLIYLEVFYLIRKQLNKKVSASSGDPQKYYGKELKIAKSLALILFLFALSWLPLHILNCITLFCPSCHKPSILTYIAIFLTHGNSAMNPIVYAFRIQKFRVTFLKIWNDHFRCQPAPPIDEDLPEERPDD
Put plainly: Adenosine antagonistic activity, radioligand binding with [3H]DPCPX. The conditions noted are these: [3H]DPCPX 4.5 nM. The procedure:
(§1) Test 1: Adenosine Antagonistic Activity
(§2) The adenosine antagonistic activity [Ki(nM)] of the test compound was examined by radioligand binding techniques using 8-cyclopentyl-1,3-dipropylxanthine, [dipropyl-2,3-^3H(N)] ([^3H]DPCPX, 4.5 nM) for human A1 receptor and [^3H]CGS 21680 (20 nM) for human A2a receptor.

Data set [2] deals with human A2a receptor (Homo sapiens, UniProt P29274). As to the kind of experiment: Adenosine antagonistic activity, radioligand binding with [3H]CGS 21680. The conditions noted are these: [3H]CGS 21680 20 nM. The procedure: as §1, §2
Data set [3] has as its system ddY mice. As to the kind of experiment: Anticatalepsy activity in mouse (haloperidol-induced catalepsy). Format: in vivo. Conditions: 3.2 mg/kg orally, ddY mice n=7; haloperidol 0.32 mg/kg i.p. 30 min later; measured 30 min after injection. The procedure: Test 2: Anticatalepsy Activity in Mouse [I] Test Method
The test compound (3.2 mg/kg) was administered orally with ddY mice (n=7). Then, haloperidol (0.32 mg/kg) was injected intraperitoneally 30 min. after the administration of the compound. Thirty min. after the injection, the cataleptic responses of mice were measured. The forelimbs of each mouse were placed on a 3 cm high, 3 mm wide horizontal bar, and the duration of cataleptic posture was measured for up to 30 sec.

In general, melting point refers to the temperature of the solid-liquid transition. The Ki is the dissociation constant of the complex between target and ligand, obtained from inhibition or displacement.

Chain of human A2a receptor (P29274 whole entry): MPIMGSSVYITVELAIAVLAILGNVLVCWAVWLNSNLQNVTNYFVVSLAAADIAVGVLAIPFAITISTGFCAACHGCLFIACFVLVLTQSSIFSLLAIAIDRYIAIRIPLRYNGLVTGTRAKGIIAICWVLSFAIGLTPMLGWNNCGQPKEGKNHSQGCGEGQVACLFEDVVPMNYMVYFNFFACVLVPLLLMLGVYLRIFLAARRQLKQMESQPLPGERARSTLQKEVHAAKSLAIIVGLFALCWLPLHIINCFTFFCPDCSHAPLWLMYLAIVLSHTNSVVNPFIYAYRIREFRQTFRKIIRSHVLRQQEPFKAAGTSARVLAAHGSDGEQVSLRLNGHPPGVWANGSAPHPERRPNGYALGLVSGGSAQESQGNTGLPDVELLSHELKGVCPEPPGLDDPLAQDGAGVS

The molecule `CCCn1cc(-c2c(-c3ccccc3F)nn3ccncc23)ccc1=O` [Example 15, 3-(1-n-Propyl-2(1H)-pyridinon-5-yl)-2-(2-fluorophenyl)pyrazolo[1,5-a]pyrazine] had a melting point of 127 to 128 °C.

As to `CCCn1cc(-c2c(-c3ccccc3)nn3ccncc23)ccc1=O` [Example 5, 3-(1-n-Propyl-2(1H)-pyridinon-5-yl)-2-phenylpyrazolo[1,5-a]pyrazine], the melting point is 165 to 166 °C.

In turn, `CC(C)n1cc(-c2c(-c3ccccc3)nn3ccncc23)ccc1=O` [Example 3, 3-(1-Isopropyl-2(1H)-pyridinon-5-yl)-2-phenylpyrazolo[1,5-a]pyrazine] returned a melting point of 196 to 197 °C.

Regarding `Cn1cc(-c2c(-c3ccccc3F)nn3ccncc23)ccc1=O` [Example 12, 3-(1-Methyl-2(1H)-pyridinon-5-yl)-2-(2-fluorophenyl)pyrazolo[1,5-a]pyrazine], the melting point lay in the range of 193 to 194 °C.

As for `CC(C)n1cc(-c2c(-c3ccccc3F)nn3ccncc23)ccc1=O` [Example 13, 3-(1-Isopropyl-2(1H)-pyridinon-5-yl)-2-(2-fluorophenyl)pyrazolo[1,5-a]pyrazine], the melting point is 150 to 151 °C.

In turn, `CCn1cc(-c2c(-c3ccccc3F)nn3ccncc23)ccc1=O` [Example 14, 3-(1-Ethyl-2(1H)-pyridinon-5-yl)-2-(2-fluorophenyl)pyrazolo[1,5-a]pyrazine] had a melting point of 173 to 174 °C.

`Cn1cc(-c2c(-c3ccc(F)cc3)nn3ccncc23)ccc1=O` [Example 7, 3-(1-Methyl-2(1H)-pyridinon-5-yl)-2-(4-fluorophenyl)pyrazolo[1,5-a]pyrazine]: the melting point is 222 to 223 °C.

On to `CCn1cc(-c2c(-c3ccccc3)nn3ccncc23)ccc1=O` [Example 4, 3-(1-Ethyl-2 (1H)-pyridinon-5-yl)-2-phenylpyrazolo[1,5-a]pyrazine], for which the melting point lay in the range of 192 to 193 °C.

`CC(C)n1cc(-c2c(-c3ccc(F)cc3)nn3ccncc23)ccc1=O` [Example 8, 3-(1-Isopropyl-2(1H)-pyridinon-5-yl)-2-(4-fluorophenyl)pyrazolo[1,5-a]pyrazine] registered a melting point of 214 to 215 °C.

For the molecule `CCn1cc(-c2c(-c3ccc(F)cc3)nn3ccncc23)ccc1=O` [Example 9, 3-(1-Ethyl-2(1H)-pyridinon-5-yl)-2-(4-fluorophenyl)pyrazolo[1,5-a]pyrazine], the melting point fell in the range of 165 to 166 °C. Also, the affinity in data set [1] corresponds to a Ki of 0.36 nM. For the same molecule, in data set [2], the Ki amounted to 4.44 nM. Further, in data set [3], the “Manifestation rate of catalepsy (number of mouse)” value (from here on “Manifestation rate of catalepsy”) was 0/7.

As to `Cn1cc(-c2c(-c3ccccc3)nn3ccncc23)ccc1=O` [Example 2, 3-(1-methyl-2(1H)-pyridinon-5-yl)-2-phenylpyrazolo[1,5-a]pyrazine], the melting point was 168 to 169 °C. The molecule also yielded a Ki in data set [1] of 0.35 nM. In data set [2], this molecule showed a Ki of 3.28 nM. Moreover, the “Manifestation rate of catalepsy” value in data set [3] is given as 0/7.

With `CCCn1cc(-c2c(-c3ccc(F)cc3)nn3ccncc23)ccc1=O` [Example 10, 3-(1-n-Propyl-2(1H)-pyridinon-5-yl)-2-(4-fluorophenyl)pyrazolo[1,5-a]pyrazine], the melting point was 183 to 184 °C.

Molecule `O=c1ccc(-c2c(-c3ccccc3)nn3ccncc23)c[nH]1` [Example 1, 3-(2(1H)-pyridinon-5-yl)-2-phenylpyrazolo[1,5-a]pyrazine] returned a melting point of more than 250 °C. In data set [1], this molecule registered an inhibition constant Ki of 0.18 nM. Moreover, the affinity in data set [2], expressed as Ki, was 0.68 nM. Besides, the “Manifestation rate of catalepsy” value in data set [3] is given as 1/7.
